In US20230212191A1, “SPIRO-SULFONIMIDAMIDE DERIVATIVES AS INHIBITORS OF MYELOID CELL LEUKEMIA-1 (MCL-1) PROTEIN” (PRELUDE THERAPEUTICS, INCORPORATED, priority 2020, published 2023) one finds Ki data, which are given here for six compounds.

This assay deals with T1, MCL-1 (Homo sapiens, UniProt Q07820).
T1 construct: purchased BPS Bioscience
T1 sequence (Q07820 whole entry): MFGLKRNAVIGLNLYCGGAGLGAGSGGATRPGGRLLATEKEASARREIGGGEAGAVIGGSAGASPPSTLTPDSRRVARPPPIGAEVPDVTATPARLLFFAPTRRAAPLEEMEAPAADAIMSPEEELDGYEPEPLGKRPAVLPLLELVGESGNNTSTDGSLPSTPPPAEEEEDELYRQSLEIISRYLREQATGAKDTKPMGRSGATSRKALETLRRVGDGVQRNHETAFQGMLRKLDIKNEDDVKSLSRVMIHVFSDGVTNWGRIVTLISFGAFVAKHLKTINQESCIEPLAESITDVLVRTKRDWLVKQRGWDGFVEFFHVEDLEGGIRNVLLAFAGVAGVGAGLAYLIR
The assay can be described thus: Cell free Mcl-1:Bim affinity assay (fluorescence polarization competition). It is filed as binding. The conditions noted are these: 15 nM MCL-1, 5 nM FITC-Bim tracer, 1 hour at room temperature; Ki calc. from IC50 by Nikolovska-Coleska's equation; read-out: BIM_ Ki. Here is the method: Cell Free Mcl-1:Bim Affinity Assay (Mcl-1 Bim)
The binding affinity of each compound was measured via a fluorescence polarization competition assay, in which the compound competes for the same binding site with the ligand, and thus leads to a dose-dependent anisotropy reduction. The tracer ligand utilized was a fluorescein isothiocyanate labelled peptide (FITC-[…]) derived from Bim (GenScript).
The assay was carried out in black half-area 96-well NBS plate (Corning), containing 15 nM of MCL-1 (BPS Bioscience), 5 nM of FITC-Bim and 3-fold serial diluted test compounds in a total volume of 50 μL of assay buffer (20 mM HEPES, 50 mM NaCl, 0.002% Tween 20, 1 mM TCEP, and 1% DMSO). The reaction plate was incubated for 1 hour at room temperature. The change of anisotropy is measured with an Envision multimode plate reader (PerkinElmer) at emission wavelength 535 nm. Fluorescence polarization was calc. in mP unit and the percentage inhibition was calc. by % inhibition=100×(mPDMSO−mP)/(mPDMSO−mPPC), in which mPDMSO is the DMSO control, and mPPC is the positive control. IC50 values were determined from a 10-point dose response curve by fitting the percent inhibition against compound concentration using the GraphPad Prism software. The inhibition constant Ki was subsequently calc. according to the Nikolovska-Coleska's equation (Anal. Biochem., 2004, 332, 261),
where [I]50 is the concentration of the free inhibitor at 50% inhibition, [L]50 is the concentration of the free labeled ligand at 50% inhibition, [P]0 is the concentration of the free protein at 0% inhibition, and Kd is the dissociation constant of the protein-ligand complex.
Regarding `Cc1nn(C)cc1C(=O)NS1(=O)=NC(=O)C(C)(C)OC/C=C/[C@H](OC(=O)N(C)C)[C@@H]2CC[C@H]2CN2C[C@@]3(CCCc4cc(Cl)ccc43)COc3ccc1cc32` (stereo partly drawn) [Example 51, [(3R,6R,7S,8E,22S)-7′-Chloro-15-[(1,3-dimethylpyrazole-4-carbonyl)amino]-12,12-dimethyl-13,15-dioxospiro[11,20-dioxa-15-thia-1,14-diazatetracyclo[14.7.2.03,6.019,24]pentacosa-8,14,16,18,24-pentaene-22,4′-2,3-dihydro-1H-naphthalene]-7-yl] N,N-dimethylcarbamate], the Ki (in general, a measure of affinity in units of concentration, obtained from inhibition or displacement) was less than 1 nM.
Take `CC(C)C(=O)NS1(=O)=NC(=O)C(C)(C)OC/C=C/[C@H](OCCN2CCCC2)[C@@H]2CC[C@H]2CN2C[C@@]3(CCCc4cc(Cl)ccc43)COc3ccc1cc32` (stereo partly drawn) [Example 54, N-[(3R,6R,7S,8E,22S)-7′-Chloro-12,12-dimethyl-13,15-dioxo-7-(2-pyrrolidin-1-ylethoxy)spiro[11,20-dioxa-15-thia-1,14-diazatetracyclo[14.7.2.03,6.019,24]pentacosa-8,14,16,18,24-pentaene-22,4′-2,3-dihydro-1H-naphthalene]-15-yl]-2-methylpropanamide]: the Ki was less than 1 nM.
With `CO[C@H]1/C=C/COC(C)(C)C(=O)N=S(=O)(NC(=O)c2cc(C)n(C)n2)c2ccc3c(c2)N(C[C@@H]2CC[C@H]21)C[C@@]1(CCCc2cc(Cl)ccc21)CO3` (stereo partly drawn) [Example 19, N-[(3R,6R,7S,8E,22S)-7′-Chloro-7-methoxy-12,12-dimethyl-13,15-dioxospiro[11,20-dioxa-15-thia-1,14-diazatetracyclo[14.7.2.03,6.019,24]pentacosa-8,14,16,18,24-pentaene-22,4′-2,3-dihydro-1H-naphthalene]-15-yl]-1,5-dimethylpyrazole-3-carboxamide], the Ki is less than 1 nM.
Turning to `CN(C)C(=O)O[C@H]1/C=C/COC(C)(C)C(=O)N=S(=O)(NC(=O)c2cnn(C)c2)c2ccc3c(c2)N(C[C@@H]2CC[C@H]21)C[C@@]1(CCCc2cc(Cl)ccc21)CO3` (stereo partly drawn) [Example 53, [(3R,6R,7S,8E,22S)-7′-Chloro-12,12-dimethyl-15-[(1-methylpyrazole-4-carbonyl)amino]-13,15-dioxospiro[11,20-dioxa-15-thia-1,14-diazatetracyclo[14.7.2.03,6.019,24]pentacosa-8,14,16,18,24-pentaene-22,4′-2,3-dihydro-1H-naphthalene]-7-yl] N,N-dimethylcarbamate], the Ki is less than 1 nM.
With `CO[C@H]1/C=C/COC(C)(C)C(=O)N=S(=O)(NC(=O)c2cnn(C)c2C)c2ccc3c(c2)N(C[C@@H]2CC[C@H]21)C[C@@]1(CCCc2cc(Cl)ccc21)CO3` (stereo partly drawn) [Example 18, N-[(3R,6R,7S,8E,22S)-7′-Chloro-7-methoxy-12,12-dimethyl-13,15-dioxospiro[11,20-dioxa-15-thia-1,14-diazatetracyclo[14.7.2.03,6.019,24]pentacosa-8,14,16,18,24-pentaene-22,4′-2,3-dihydro-1H-naphthalene]-15-yl]-1,5-dimethylpyrazole-4-carboxamide], the Ki is less than 1 nM.
Regarding `Cn1cc(C(=O)NS2(=O)=NC(=O)C(C)(C)OC/C=C/[C@H](O)[C@@H]3CC[C@H]3CN3C[C@@]4(CCCc5cc(Cl)ccc54)COc4ccc2cc43)cn1` (stereo partly drawn) [Example 52, N-[(3R,6R,7S,8E,22S)-7′-Chloro-7-hydroxy-12,12-dimethyl-13,15-dioxospiro[11,20-dioxa-15-thia-1,14-diazatetracyclo[14.7.2.03,6.019,24]pentacosa-8,14,16,18,24-pentaene-22,4′-2,3-dihydro-1H-naphthalene]-15-yl]-1-methylpyrazole-4-carboxamide], the Ki was greater than 1 nM.
